According to patent US20240246967A1, “AXL COMPOUNDS” (ARCUS BIOSCIENCES, INC., priority 2021, published 2024):

Target: T1, Axl (Homo sapiens, UniProt P30530)
T1 sequence (P30530 26-894): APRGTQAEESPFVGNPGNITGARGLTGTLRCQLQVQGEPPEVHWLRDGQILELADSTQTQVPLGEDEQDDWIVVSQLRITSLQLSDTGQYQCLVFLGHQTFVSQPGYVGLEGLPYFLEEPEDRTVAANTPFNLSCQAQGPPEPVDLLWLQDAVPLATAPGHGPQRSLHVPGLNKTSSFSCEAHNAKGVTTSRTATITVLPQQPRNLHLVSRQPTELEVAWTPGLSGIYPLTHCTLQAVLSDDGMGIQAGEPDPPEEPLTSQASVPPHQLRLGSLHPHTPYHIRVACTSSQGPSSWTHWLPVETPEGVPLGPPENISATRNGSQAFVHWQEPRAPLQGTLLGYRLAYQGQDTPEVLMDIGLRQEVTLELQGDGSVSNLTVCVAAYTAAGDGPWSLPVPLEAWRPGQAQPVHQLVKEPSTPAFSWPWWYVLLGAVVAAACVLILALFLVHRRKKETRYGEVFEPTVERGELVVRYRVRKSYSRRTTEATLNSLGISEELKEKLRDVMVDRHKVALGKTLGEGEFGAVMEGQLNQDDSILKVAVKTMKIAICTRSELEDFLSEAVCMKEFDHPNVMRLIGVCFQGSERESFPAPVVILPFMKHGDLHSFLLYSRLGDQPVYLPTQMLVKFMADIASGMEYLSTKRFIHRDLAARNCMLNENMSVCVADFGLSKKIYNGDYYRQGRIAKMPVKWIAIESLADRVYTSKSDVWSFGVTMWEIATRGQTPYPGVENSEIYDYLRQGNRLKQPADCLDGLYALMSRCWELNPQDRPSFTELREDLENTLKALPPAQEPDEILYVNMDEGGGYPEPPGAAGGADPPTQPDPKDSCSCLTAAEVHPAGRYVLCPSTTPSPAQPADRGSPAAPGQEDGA
Assay: Axl NanoBRET intracellular kinase assay (intracellular binding, Cell Binding)
Design: host or cells: HEK-293
Conditions: HEK-293 cells transfected with Axl-NanoLuc fusion vector; 0.35 μM K-5 NanoBRET tracer
How it was run: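 Intracellular binding measured as loss of BRET (610 nm/450 nm) when compounds displace 0.35 μM K-5 tracer from Axl-NanoLuc in transfected HEK-293 cells.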

SMILES | IC50
c1cc2c(cc1-c1cnc3[nH]nc(-c4ccc(N5C[C@H]6C[C@@H]5CO6)cc4)c3c1)CC[C@@H](N1C3COCC1C3)CC2 [Example 126, (1R,4R)-5-(4-{5-[(7S)-7-{3-oxa-6-azabicyclo[3.1.1]heptan-6-yl}-6,7,8,9-tetrahydro-5H-benzo[7]annulen-2-yl]-2H-pyrazolo[3,4-b]pyridin-3-yl}phenyl)-2-oxa-5-azabicyclo[2.2.1]heptane] | 100 to 1000 nM
FC1CN(c2ccc(-c3c[nH]c4ncc(-c5ccc6c(c5)CC[C@@H](N5C7COCC5C7)CC6)cc34)cc2)C1 [Example 127, 6-[(7S)-2-{3-[4-(3-fluoroazetidin-1-yl)phenyl]-1H-pyrrolo[2,3-b]pyridin-5-yl}-6,7,8,9-tetrahydro-5H-benzo[7]annulen-7-yl]-3-oxa-6-azabicyclo[3.1.1]heptane] | < 100 nM
